Experimental data: PMC3443605 (Journal of medicinal chemistry, 2012)
Entries after “also recorded” stand apart in the source; their conditions may differ. Blank lines part the entries; values can stand above or below the compound they belong to.

Assays:
[1] = molecular target: T1, D2L receptors (Homo sapiens, UniProt P14416); assay: D2R radioligand binding assay
Target sequence in this assay (P14416 whole entry): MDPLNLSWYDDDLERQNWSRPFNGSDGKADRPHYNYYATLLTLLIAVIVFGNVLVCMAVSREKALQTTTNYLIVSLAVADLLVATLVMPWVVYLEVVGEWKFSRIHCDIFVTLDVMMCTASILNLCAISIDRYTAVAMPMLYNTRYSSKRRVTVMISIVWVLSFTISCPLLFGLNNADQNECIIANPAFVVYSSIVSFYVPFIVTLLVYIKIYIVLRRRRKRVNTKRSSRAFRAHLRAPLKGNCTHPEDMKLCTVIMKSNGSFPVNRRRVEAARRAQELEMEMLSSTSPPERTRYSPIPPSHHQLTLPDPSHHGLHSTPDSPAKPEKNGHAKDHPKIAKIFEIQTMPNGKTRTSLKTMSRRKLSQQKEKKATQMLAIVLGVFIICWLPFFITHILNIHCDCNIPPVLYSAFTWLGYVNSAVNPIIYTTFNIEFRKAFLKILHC

[2] = molecular target: T1, D2L receptors; assay: cell-based; assay type: cell-based
Target sequence in this assay (P14416 whole entry, added parts left off): as the sequence (P14416 whole entry) above
Target sequence in this assay (P32121 whole entry partner): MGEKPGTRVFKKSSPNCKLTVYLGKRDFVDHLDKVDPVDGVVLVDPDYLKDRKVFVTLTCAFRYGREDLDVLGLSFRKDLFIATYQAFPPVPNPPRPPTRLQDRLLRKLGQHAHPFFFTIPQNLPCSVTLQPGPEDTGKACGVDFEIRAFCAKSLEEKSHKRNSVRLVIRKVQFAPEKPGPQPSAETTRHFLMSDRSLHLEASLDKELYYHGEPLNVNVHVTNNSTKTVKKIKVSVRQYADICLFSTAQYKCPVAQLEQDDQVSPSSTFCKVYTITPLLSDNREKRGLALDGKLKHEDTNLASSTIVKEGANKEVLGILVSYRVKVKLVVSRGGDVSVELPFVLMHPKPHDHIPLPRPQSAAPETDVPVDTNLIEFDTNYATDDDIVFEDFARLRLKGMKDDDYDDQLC

[3] = cited from earlier work
[4] = tested on: β-arrestin-2 knockout mice; assay: PCP-induced hyperlocomotion in β-arrestin-2 knockout mice; assay type: in vivo, mouse; conditions: 2 mg/kg i.p., 30 min before 6 mg/kg PCP i.p.
[5] = molecular target: D1 receptor (Homo sapiens, UniProt P21728); assay: PDSP radioligand binding assay, D1; conditions: Table S1
D1 receptor, sequence (P21728 whole entry): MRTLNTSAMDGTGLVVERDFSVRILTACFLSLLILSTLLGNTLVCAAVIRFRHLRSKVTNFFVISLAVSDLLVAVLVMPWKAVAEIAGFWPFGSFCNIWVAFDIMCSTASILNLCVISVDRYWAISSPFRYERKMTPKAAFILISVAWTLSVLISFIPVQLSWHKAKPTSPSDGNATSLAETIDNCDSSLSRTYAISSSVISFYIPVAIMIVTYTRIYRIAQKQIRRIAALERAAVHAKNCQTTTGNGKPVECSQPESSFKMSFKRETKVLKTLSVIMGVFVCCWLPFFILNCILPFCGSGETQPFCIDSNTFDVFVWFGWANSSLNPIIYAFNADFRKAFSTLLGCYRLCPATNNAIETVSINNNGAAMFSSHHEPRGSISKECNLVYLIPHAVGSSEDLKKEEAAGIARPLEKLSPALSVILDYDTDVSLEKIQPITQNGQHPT

[6] = molecular target: D5 receptor (Homo sapiens, UniProt P21918); assay: PDSP radioligand binding assay, D5; conditions: Table S1
D5 receptor, sequence (P21918 whole entry): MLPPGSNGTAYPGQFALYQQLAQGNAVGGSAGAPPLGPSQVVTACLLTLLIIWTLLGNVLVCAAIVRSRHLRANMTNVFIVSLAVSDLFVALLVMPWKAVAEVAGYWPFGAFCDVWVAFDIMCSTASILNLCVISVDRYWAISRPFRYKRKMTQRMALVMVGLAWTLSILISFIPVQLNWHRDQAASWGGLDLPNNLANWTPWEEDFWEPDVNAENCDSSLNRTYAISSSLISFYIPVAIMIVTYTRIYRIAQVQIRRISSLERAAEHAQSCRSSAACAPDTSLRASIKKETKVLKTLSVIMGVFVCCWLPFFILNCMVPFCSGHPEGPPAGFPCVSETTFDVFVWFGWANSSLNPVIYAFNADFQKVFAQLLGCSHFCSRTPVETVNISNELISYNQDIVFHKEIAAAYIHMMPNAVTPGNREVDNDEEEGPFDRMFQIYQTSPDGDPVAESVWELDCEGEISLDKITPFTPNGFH

[7] = tested on: wild-type mice; assay: PCP-induced hyperlocomotion in wild-type mice; assay type: in vivo, mouse; conditions: 2 mg/kg i.p., 30 min before 6 mg/kg PCP i.p.
[8] = molecular target: T2, D4 receptor (Homo sapiens, UniProt P21917); assay: PDSP radioligand binding assay, D4; conditions: Table S1
T2 sequence (P21917 1-419): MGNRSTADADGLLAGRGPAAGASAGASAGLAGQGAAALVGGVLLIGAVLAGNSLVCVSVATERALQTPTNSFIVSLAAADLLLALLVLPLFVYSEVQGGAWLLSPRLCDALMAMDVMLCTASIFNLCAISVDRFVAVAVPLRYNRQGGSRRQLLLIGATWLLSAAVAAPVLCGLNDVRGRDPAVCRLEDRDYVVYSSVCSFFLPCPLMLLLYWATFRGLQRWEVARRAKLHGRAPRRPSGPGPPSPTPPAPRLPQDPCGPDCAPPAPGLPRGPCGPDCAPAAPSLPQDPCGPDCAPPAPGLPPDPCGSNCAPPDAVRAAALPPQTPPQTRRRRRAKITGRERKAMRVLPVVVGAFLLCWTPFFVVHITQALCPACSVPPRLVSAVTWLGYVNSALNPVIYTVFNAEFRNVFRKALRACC

[9] = molecular target: D3 receptor (Homo sapiens, UniProt P35462); assay: PDSP radioligand binding assay, D3; conditions: Table S1
D3 receptor, sequence (P35462 whole entry): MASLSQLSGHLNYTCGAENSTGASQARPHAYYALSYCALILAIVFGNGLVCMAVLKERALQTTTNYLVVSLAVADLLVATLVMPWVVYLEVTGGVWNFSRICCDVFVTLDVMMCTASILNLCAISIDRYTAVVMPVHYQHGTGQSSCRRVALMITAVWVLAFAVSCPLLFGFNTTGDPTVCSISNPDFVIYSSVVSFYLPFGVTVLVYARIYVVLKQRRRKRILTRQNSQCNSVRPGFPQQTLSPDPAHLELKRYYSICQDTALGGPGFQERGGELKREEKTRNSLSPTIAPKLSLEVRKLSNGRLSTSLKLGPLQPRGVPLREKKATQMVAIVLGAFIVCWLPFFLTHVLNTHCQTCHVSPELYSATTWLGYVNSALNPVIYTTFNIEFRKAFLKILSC

[10] = tested on: β-arrestin-2 knockout mice; conditions: cited from earlier work
[11] = tested on: wild-type mice; conditions: cited from earlier work
[12] = tested on: wild-type mice; conditions: cited from earlier work; remark: listed apart in the source

Compound: O=C1CCc2ccc(OC[C@@H]3C[C@H]3CN3CCN(c4cccc(Cl)c4Cl)CC3)cc2N1 (relative stereo) [Compound 24, Trans-7-((2-((4-(2,3-dichlorophenyl)piperazin-1-yl)methyl)cyclopropyl)methoxy)-3,4-dihydroquinolin-2(1H)-one]
- Ki [1]: 235 nM
- EC50 [2]: 1260 nM

Compound: O=C1CCc2ccc(OCCCCN3CCN(c4cccc(Cl)c4Cl)CC3)cc2N1 [Compound 1, aripiprazole]
- oral bioavailability [3]: high

Compound: CC(C)Oc1ccccc1N1CCN(CCCCOc2ccc3c(c2)NC(=O)CC3)CC1 [Compound 4, 7-(4-(4-(2-Isopropoxyphenyl)piperazin-1-yl)butoxy)-3,4-dihydroquinolin-2(1H)-one]
- potency at activating β-arrestin versus Gi signaling [2]: about 10 fold

- binding affinity to D1 receptor [5]: low affinities
- binding affinity to D5 receptor [6]: low affinities
Compound: O=C1CCc2ccc(OCCCCN3CCCN(c4cccc(Cl)c4Cl)CC3)cc2N1 [Compound 19]
- antipsychotic-like activity (PCP-induced hyperlocomotion), β-arrestin-2 knockout mice [4]: neither compound affected; also recorded: completely abolished
- effect on PCP-induced hyperlocomotion, wild-type mice [7]: markedly inhibited

Compound: Clc1cccc(C2CCN(CCCCOc3ccc4scnc4c3)CC2)c1Cl [Compound 35, 5-(4-(4-(2,3-Dichlorophenyl)piperidin-1-yl)butoxy)benzo[d]thiazole]
- binding affinity to D2 receptor ([1]; Table S1): high affinities
- antipsychotic-like activity (PCP-induced hyperlocomotion), β-arrestin-2 knockout mice [4]: neither compound affected
- binding affinity to D4 receptor [8]: high affinities
- binding affinity to D1 receptor [5]: low affinities
- binding affinity to D3 receptor [9]: high affinities
- binding affinity to D5 receptor [6]: low affinities
- effect on PCP-induced hyperlocomotion, wild-type mice [7]: significantly reduced

Compound: Clc1cccc(C2CCN(CCCOc3ccc4scnc4c3)CC2)c1Cl [Compound 36]
- antipsychotic drug-like activities in β-arrestin-2 knockout mice [10]: significantly attenuated or completely abolished
- antipsychotic drug-like activities in wild-type mice [11]: robust
- catalepsy in wild-type mice [12]: did not induce catalepsy

Compound: O=C1CCc2ccc(OCCCCN3CCCN(c4cccc(Cl)c4Cl)CC3)nc2N1 [Compound 44]
- antipsychotic drug-like activities in β-arrestin-2 knockout mice [10]: significantly attenuated or completely abolished
- antipsychotic drug-like activities in wild-type mice [11]: robust
- catalepsy in wild-type mice [12]: did not induce catalepsy
